Active and inactive are the calls of the source.
Assays:
ORF 73 = molecular target: T1, ORF 73 (Human herpesvirus 8, UniProt O40947); assay: KSHV LANA DNA-binding disruption – biochemical, fluorescence polarization, cherry-picked samples, dose response (AID 504725); parameters: species or system Human gammaherpesvirus 8;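 also: fluorescence polarization of a labeled DNA duplex reporting LANA DNA binding; potency is for inhibitors that block LANA binding to the DNA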
T1 sequence (O40947 whole entry): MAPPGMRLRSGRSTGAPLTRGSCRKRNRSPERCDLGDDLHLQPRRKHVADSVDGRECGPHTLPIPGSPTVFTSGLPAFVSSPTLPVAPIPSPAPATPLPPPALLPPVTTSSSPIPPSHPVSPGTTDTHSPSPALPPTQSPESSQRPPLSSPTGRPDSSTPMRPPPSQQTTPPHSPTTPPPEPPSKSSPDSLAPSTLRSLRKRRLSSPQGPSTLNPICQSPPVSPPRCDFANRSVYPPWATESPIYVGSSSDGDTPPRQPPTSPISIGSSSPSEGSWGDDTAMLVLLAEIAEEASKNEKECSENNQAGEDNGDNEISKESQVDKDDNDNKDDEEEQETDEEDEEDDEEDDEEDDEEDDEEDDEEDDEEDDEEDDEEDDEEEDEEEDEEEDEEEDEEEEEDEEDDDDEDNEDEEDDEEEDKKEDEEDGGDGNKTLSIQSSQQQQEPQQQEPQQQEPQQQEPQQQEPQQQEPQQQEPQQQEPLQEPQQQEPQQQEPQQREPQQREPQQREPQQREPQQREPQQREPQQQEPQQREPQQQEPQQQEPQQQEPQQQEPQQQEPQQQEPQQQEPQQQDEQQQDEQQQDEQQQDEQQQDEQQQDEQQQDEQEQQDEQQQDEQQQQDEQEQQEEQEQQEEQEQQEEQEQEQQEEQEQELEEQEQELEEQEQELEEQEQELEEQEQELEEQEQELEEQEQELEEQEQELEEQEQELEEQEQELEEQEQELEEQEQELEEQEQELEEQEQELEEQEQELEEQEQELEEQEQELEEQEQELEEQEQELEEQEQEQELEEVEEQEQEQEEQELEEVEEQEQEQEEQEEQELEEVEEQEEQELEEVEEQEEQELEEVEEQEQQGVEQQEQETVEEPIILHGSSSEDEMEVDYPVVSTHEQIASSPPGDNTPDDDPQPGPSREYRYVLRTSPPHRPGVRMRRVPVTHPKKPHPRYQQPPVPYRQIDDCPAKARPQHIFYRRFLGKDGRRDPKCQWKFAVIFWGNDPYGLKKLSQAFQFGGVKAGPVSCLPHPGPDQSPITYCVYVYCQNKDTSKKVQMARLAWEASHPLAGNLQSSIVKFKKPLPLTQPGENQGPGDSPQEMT

Keap1/Nrf2 = Keap1/Nrf2 (Homo sapiens, UniProt Q14145); assay: disruptors of Keap1 binding to Nrf2 peptide – biochemical, fluorescence polarization, cherry-picked samples, dose response (AID 588683)
[1] = molecular target: UDP-galactopyranose mutase (Mycobacterium tuberculosis, UniProt P9WIQ1); assay: Inhibitors of Mycobacterium tuberculosis UDP-galactopyranose mutase (UGM) enzyme Measured in Biochemical System Using Plate Reader - 2105-02_Inhibitor_Dose_CherryPick_Activity. [Related pubchem assays (depositor defined):AID504439]
[2] = loss of viability in HepG2 cells – cell-based, CellTiter-Glo, cherry-picked, cytotoxicity control for Shn3 inhibitor project, dose response (AID 624134); format: functional
Jurkat = assay: blockers of NF-kB activation in T cells – Jurkat, luciferase reporter, luminescence, B- and T-cell, dose response (AID 489004); format: functional, cell-based; details: Homo sapiens;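 also: NF-kB luciferase reporter Jurkat cells stimulated with PMA plus ionomycin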
[3] = HEK-293T viability loss, compound-treated – cell-based, uHTS hits, cytotoxicity control for B/T-cell NF-kB inhibitor project, dose response (AID 489019); format: functional;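 also: IC50 reflects cytotoxicity as loss of cell viability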
[4] = non-specific 3'UTR reporter inhibition in Clone20-Shn3RL – cell-based, Renilla luciferase, cherry-picked, counter-screen for Shn3 inhibitor project, dose response (AID 624133); format: functional
[5] = reduction of Shn3 3'UTR-driven luciferase in osteoblasts – cell-based, Clone20 osteoblasts, firefly luciferase, cherry-picked, dose response (AID 624132); format: functional;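 also: firefly luciferase luminescence from reporter carrying the Shn3 3'UTR in osteoblasts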
CAAX prenyl protease 2 = molecular target: T2, CAAX prenyl protease 2 (Homo sapiens, UniProt Q9Y256); assay: inhibition of Ras-converting CAAX protease Rce1 – biochemical, yeast membranes, quenched-peptide fluorescence, cherry-pick, dose response (AID 588849)
T2 sequence (Q9Y256 whole entry): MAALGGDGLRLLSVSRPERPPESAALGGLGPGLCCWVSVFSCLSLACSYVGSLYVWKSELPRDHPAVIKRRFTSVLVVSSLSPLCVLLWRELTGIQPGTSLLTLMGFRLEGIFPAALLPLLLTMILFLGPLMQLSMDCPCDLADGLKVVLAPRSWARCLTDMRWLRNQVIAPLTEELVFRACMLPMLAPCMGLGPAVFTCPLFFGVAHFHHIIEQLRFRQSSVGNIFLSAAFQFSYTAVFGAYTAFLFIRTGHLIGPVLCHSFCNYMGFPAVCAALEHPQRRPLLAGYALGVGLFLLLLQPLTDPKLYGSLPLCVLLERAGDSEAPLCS

[6] = molecular target: T3, High affinity choline transporter 1 (Homo sapiens, UniProt Q9GZV3); assay: human choline transporter blockers, potency – cell-based, 5-point CRC, membrane potential dye, dose response (AID 504840); format: functional
T3 sequence (Q9GZV3 whole entry): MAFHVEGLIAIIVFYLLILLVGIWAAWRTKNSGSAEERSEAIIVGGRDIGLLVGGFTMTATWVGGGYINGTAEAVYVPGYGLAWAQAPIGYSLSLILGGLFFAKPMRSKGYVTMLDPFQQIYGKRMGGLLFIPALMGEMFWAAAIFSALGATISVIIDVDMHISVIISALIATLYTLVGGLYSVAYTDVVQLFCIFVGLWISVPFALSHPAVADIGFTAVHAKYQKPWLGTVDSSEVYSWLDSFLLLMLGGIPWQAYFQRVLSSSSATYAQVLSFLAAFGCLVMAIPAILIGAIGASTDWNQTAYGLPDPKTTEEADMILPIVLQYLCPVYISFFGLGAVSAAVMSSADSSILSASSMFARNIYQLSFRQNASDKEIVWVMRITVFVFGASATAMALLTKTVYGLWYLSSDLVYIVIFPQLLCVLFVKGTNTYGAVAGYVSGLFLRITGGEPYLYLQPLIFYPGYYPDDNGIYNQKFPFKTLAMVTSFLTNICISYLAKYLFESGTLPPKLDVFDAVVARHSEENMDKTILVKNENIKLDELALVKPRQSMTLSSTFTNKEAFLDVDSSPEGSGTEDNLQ

[7] = reduced cellular PGC1a acetyl-lysine signal – cell-based, cherry-picked samples, dose response (AID 720514); format: functional;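 also: potency may reflect raised or lowered acetylation signal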
[8] = molecular target: T4, Corticotropin-releasing factor receptor 2/Corticotropin-releasing factor-binding protein (Homo sapiens, UniProt P24387+Q13324); assay: activators of CRF receptor 2 with binding protein – uHTS hits, confirmation (AID 602473); format: functional; details: read-out: EC50_Mean
T4 sequence (Q13324 whole entry): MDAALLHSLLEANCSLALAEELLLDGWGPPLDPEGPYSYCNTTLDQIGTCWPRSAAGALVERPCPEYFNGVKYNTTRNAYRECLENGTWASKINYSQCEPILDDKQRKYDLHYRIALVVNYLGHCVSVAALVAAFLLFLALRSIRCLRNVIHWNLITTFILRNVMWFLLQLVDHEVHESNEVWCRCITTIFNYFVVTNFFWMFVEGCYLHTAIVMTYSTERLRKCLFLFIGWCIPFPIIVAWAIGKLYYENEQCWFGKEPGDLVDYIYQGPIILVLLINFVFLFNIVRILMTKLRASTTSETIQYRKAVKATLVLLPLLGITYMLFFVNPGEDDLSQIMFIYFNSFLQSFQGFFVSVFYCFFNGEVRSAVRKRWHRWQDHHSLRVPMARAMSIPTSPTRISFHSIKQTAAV
T4 sequence (P24387 whole entry): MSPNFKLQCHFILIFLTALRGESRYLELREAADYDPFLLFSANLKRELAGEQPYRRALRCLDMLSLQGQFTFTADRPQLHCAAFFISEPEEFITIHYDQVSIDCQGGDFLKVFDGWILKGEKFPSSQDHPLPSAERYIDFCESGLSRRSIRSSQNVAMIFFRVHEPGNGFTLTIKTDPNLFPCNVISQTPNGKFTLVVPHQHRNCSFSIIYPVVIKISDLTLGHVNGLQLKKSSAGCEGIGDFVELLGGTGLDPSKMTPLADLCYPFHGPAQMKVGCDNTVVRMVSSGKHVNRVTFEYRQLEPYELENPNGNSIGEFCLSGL

[9] = molecular target: T4, Corticotropin-releasing factor receptor 2/Corticotropin-releasing factor-binding protein; assay: Dose Response confirmation of uHTS hits for small molecule antagonists of the CRF-binding protein and CRF-R2 receptor complex.; format: functional; details: read-out: IC50_Mean
[10] = Luminescence Cell-Based Dose Response HTS to Identify Inhibitors of 5'UTR Stem-Loop Driven Prion Protein mRNA Translation in H4 Neuroglioblastoma Cells. [Related pubchem assays: 1827 (Project Summary), 1813 (Primary HTS)]; format: functional
Troponin, cardiac muscle = Troponin, cardiac muscle (Homo sapiens, UniProt P19429+P45379+P63316); assay: Fluorescence-based biochemical high throughput dose response assay for activators of the calcium sensitivity of cardiac Regulated Thin Filaments (RTF). [Related pubchem assays (depositor defined):AID493008, AID493018, AID504382, AID504383]; format: protein-complex assay
[11] = molecular target: Heat shock protein HSP 90-alpha (Homo sapiens, UniProt P07900); format: functional, organism-based
cells [12] = format: functional, cell-based
[13] = molecular target: T5, Calpain-2 catalytic subunit (Sus scrofa, UniProt P43367); assay: m-calpain protease blockers, concentration series – biochemical, fluorogenic peptide substrate, dose response (AID 1420); format: functional
T5 sequence (P43367 whole entry): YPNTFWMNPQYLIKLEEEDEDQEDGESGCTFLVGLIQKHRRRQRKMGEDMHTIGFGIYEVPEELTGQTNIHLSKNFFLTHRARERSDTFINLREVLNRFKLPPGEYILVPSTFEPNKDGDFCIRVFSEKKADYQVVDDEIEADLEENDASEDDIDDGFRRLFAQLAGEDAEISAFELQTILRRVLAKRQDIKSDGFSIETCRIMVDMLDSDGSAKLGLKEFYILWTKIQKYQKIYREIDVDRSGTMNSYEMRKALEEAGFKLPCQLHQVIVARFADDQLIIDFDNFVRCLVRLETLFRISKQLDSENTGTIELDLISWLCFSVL

[14] = molecular target: T6, Rac GTPase-activating protein 1 (Homo sapiens, UniProt Q9H0H5); assay: blockers of MgcRacGAP-driven Rac1 GTP hydrolysis – biochemical, ADP Hunter fluorescence, primary and confirmatory, confirmation (AID 624330); format: functional
T6 sequence (Q9H0H5 whole entry): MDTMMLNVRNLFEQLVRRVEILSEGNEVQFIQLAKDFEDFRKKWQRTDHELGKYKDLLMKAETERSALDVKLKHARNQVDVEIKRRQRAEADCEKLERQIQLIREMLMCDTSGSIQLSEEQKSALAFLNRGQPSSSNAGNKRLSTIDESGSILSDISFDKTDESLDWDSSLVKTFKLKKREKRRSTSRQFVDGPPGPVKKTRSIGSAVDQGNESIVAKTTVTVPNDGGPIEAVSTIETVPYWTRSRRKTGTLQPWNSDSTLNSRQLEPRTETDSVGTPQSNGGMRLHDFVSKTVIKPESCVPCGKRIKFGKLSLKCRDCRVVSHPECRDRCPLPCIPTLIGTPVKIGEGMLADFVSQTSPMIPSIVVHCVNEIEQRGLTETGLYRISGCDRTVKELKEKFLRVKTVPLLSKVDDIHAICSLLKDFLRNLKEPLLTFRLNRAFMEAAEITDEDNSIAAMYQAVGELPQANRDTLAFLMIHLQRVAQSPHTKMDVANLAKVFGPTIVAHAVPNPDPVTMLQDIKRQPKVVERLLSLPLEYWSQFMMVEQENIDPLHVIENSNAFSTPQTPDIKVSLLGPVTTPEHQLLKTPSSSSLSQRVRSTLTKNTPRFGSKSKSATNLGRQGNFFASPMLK

[15] = molecular target: T7, COUP transcription factor 2 (Homo sapiens, UniProt P24468); assay: Luminescence-based cell-based high throughput dose response assay to identify inhibitors of COUP-TFII (NR2F2).; format: functional;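 also: HEK293 cells transiently cotransfected with COUP-TFII expression vector and reporter; luciferase reporter luminescence driven by COUP-TFII from the pX2-168 reporter plasmid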
T7 sequence (P24468 whole entry): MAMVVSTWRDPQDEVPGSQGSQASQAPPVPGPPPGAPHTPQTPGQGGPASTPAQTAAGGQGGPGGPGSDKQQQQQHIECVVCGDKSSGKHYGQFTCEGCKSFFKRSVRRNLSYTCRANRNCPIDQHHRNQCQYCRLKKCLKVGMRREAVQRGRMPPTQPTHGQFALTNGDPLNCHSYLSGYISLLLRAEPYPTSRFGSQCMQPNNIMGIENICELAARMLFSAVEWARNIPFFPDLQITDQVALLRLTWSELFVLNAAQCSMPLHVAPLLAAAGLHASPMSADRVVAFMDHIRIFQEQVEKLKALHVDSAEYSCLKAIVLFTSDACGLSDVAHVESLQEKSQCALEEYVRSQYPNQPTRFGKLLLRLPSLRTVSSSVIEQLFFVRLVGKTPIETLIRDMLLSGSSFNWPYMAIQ

cells [16] = format: functional, cell-based; remark: listed apart in the source
[17] = viability loss in HeLa cells – cytotoxicity control for MgcRacGAP inhibitor project, dose response (AID 624300); format: functional
[18] = microbe, parasite or virus in culture; format: functional; details: Mycobacterium tuberculosis

Sequence of Keap1/Nrf2 (Q16236 whole entry): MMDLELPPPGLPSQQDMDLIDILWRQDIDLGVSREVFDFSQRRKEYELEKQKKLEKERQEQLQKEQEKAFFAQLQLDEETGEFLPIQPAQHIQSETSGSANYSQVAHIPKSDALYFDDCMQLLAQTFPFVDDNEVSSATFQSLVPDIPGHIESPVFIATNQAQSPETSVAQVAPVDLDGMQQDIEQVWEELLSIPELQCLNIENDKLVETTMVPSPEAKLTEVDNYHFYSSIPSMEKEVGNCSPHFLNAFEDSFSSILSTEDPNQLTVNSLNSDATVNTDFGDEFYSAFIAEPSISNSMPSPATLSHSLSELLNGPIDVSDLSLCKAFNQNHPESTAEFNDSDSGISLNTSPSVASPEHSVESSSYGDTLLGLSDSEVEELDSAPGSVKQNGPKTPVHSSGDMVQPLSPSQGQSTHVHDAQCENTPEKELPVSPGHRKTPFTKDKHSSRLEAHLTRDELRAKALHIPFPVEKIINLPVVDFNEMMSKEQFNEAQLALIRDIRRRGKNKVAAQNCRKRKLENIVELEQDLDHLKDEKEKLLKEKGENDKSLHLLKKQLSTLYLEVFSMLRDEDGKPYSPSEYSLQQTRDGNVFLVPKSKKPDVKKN
Sequence of Keap1/Nrf2 (Q14145 whole entry): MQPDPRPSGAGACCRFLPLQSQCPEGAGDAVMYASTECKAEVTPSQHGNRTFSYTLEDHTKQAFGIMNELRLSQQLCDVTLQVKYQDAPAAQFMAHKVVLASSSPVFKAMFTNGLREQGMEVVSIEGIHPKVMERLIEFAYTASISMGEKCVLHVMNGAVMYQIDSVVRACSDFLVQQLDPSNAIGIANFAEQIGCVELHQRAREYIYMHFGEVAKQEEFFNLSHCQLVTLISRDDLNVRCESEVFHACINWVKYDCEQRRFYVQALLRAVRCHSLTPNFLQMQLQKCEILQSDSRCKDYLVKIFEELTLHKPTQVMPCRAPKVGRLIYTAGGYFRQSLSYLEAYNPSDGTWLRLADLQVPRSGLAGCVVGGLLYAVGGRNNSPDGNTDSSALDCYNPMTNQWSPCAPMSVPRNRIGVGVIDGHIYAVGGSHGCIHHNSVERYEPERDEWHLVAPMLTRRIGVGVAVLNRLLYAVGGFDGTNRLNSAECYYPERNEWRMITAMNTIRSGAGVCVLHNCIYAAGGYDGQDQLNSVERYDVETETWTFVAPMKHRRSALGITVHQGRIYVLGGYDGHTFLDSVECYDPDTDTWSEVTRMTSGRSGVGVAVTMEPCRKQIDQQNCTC
Sequence of UDP-galactopyranose mutase (P9WIQ1 whole entry): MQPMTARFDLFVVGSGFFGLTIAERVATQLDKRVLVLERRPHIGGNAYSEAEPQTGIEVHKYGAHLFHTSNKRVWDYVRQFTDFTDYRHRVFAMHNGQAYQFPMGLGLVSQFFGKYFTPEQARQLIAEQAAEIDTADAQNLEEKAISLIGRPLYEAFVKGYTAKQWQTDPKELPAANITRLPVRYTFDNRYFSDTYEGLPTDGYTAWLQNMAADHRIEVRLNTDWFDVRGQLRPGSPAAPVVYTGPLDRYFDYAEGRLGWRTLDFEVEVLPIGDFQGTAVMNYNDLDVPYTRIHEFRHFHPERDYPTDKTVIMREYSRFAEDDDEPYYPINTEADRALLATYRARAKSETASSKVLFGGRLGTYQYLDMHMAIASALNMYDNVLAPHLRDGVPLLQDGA

Nc1ccc2nc3c(=O)n(C4CCCCC4)c(=O)[nH]c3nc2c1
AC50 (ORF 73): 1.42 µM (active)
AC50 (Keap1/Nrf2): 9.04 µM (active)
AC50 [1]: 2.64 µM (active)

CC1(c2ccc3ccccc3c2)NC(=O)N(CC(=O)N2CCN(Cc3ccc(C#N)cc3)CC2)C1=O (stereo unspecified)
AC50 [2]: < 0.26 µM (active)
IC50 (Jurkat): > 80 µM (inactive)
IC50 [3]: > 80 µM (inactive)
AC50 [4]: 1.04 µM (active)
AC50 [5]: 0.416 µM (active)

CC(=O)NN1C(=O)c2ccccc2NC1c1ccccc1 (stereo unspecified)
AC50 (CAAX prenyl protease 2): > 100 µM (inactive)

Cc1cccc(NS(=O)(=O)c2cccc(C(=O)NCC(c3ccco3)N3CCCCC3)c2)c1 (stereo unspecified)
IC50 [6]: 22 µM (active)
AC50 [7]: 32.2 µM (active)

O=c1[nH]c(=O)n(-c2ccc(F)cc2)c2c1C(C(F)(F)F)(C(F)(F)F)N=C(c1ccc(F)cc1)N2
IC50 [6]: 12 µM (active)
EC50 [8]: > 53 µM (inactive)
IC50 [9]: 4.69 µM (active)

CCN1/C(=C/c2ccc3cc(C)ccc3[n+]2CC)Sc2ccccc21
EC50 [10]: > 120 µM (not active)
EC50 (Troponin, cardiac muscle): 10.4 µM (inactive)
AC50 [11]: 7.73 µM (active)
EC50 (cells [12]): > 350 µM (not active)
IC50 [13]: 16.4 µM (not active)
IC50 [14]: 59.5 µM (active)
IC50 (Jurkat): 2.6 µM (active)
IC50 [3]: > 80 µM (inactive)
IC50 [15]: 1.55 µM (active)
EC50 (cells [16]): > 350 µM (not active)
CC50 [17]: 12.5 µM (active)
CC50 [18]: 1.92 µM (active)

Reference: ChEMBL document CHEMBL1201862, “PubChem BioAssay data set” (2004)
